Measurements published in patent EP4752152A1, “STEROID COMPOUND, AND PREPARATION METHOD THEREFOR AND USE THEREOF” (Cholesgen (Shanghai) Co.Ltd., priority 2023, dated 2025).

System: SREBP pathway
Assay: SREBP luciferase reporter gene system (SRE-luciferase assay)
Type: cell-based, human
Conditions: Huh-7/SRE-luc cells, sterol-deficient medium, 0.01-10 µM
Procedure: Huh-7/SRE-luc cells were incubated in sterol-deficient medium (5% lipoprotein deficient serum, 2 µM lovastatin, 10 µM mevalonic acid) with corresponding concentrations of compounds for 16 hours. The Huh-7/SRE-luc cells were human hepatoma cell line Huh-7 stably expressing LDLR promotor-luciferase and green fluorescent protein (GFP). These cells were obtained by transfecting Huh-7 with pLDLR-promotor-luciferase and pEGFP-N1 plasmids, followed by screening under G418 antibiotic selection pressure. The Huh-7 cells were purchased from ATCC, the pLDLR-promotor-luciferase plasmid was obtained by molecular cloning methods, and the pEGFP-N1 plasmid was purchased from Addgene.
After compound treatment, the cells were lysed with lysis buffer (E397A, Promega). After the addition of luciferase substrate (E1500, Promega), the activity of SRE-driven luciferase was measured using a BioTek Synergy HTX microplate reader (including but not limited to this type of instrument). The fluorescence intensity of green fluorescent protein (EGFP) was also measured using the above BioTek microplate reader (including but not limited to this type of instrument) and served as an internal control. The ratio of SRE-driven luciferase activity divided by the fluorescence intensity of green fluorescent protein was used as an indicator of SREBP pathway activity. The test data for each test compound were analyzed using Prism software (with the DMSO-treated group as the reference to calculate the compound inhibition rate, fitted using the Prism log(inhibitor) vs. response--Variable slope (four-parameter) model, calculation formula: Y = Bottom + (Top - Bottom)/(1 + 10^((LogIC50 - X) × HillSlope))), to obtain the IC50 parameters of the compounds.
Using the method described in 1.1, the inhibitory effect of the compounds of the present disclosure on the SREBP pathway was tested. The concentration gradient for each compound was designed as 0.01, 0.03, 0.1, 0.3, 1.0, 3.0, and 10 µM, with the vehicle DMSO as the control.

Structure (SMILES) | IC50 (Homo sapiens, Huh-7, 16 h) | IC50 (16 hours)
COc1cccc(F)c1[C@@H](F)CCC[C@@H](C)[C@H]1CC[C@H]2[C@H]3[C@H](CC[C@]12C)[C@@]1(C)CC[C@H](O)[C@H](O)[C@@H]1CC3(F)F (single isomer, unassigned) [Compound 215] | 3.57 µM | –
C[C@H](CCCC(O)c1cccc(F)c1)[C@H]1CC[C@H]2C3=C(F)C[C@H]4[C@@H](O)[C@@H](O)CC[C@]4(C)[C@H]3CC[C@]12C (stereo partly drawn) [Compound 45, (1R,3aR,5aR,6R,7S,9aR,9bR,11aR)-4-fluoro-1-[(2R)-6-(3-fluorophenyl)-6-hydroxyhexan-2-yl]-9a,11a-dimethyl-2,3,3a,5,5a,6,7,8,9,9a,9b,10,11,11a-tetradecahydro-1H-cyclopenta[1,2-a]phenanthrene-6,7-diol] | 0.198 µM | –
COc1nc(F)ccc1[C@@H](O)CCC[C@@H](C)[C@H]1CC[C@H]2[C@H]3[C@H](CC[C@]12C)[C@@]1(C)CC[C@H](O)C[C@@H]1CC3(F)F [Compound 312, (1R,3aS,3bR,5aR,7S,9aS,9bS,11aR)-4,4-difluoro-1-[(2R,6S)-6-(6-fluoro-2-methoxypyridin-3-yl)-6-hydroxyhexan-2-yl]-9a,11a-dimethylhexadecahydro-1H-cyclopenta[1,2-a]phenanthren-7-ol] | 0.276 µM | –
C[C@H](CCC[C@H](O)c1nn(C)c2ccccc12)[C@H]1CC[C@H]2[C@H]3[C@H](CC[C@]12C)[C@@]1(C)CC[C@H](O)[C@H](O)[C@@H]1CC3(F)F [Compound 323, (1R,3aS,3bS,5aR,6R,7S,9aR,9bS,11aR)-4,4-difluoro-1-[(2R,6S)-6-hydroxy-6-(1-methylindazol-3-yl)hexan-2-yl]-9a,11a-dimethylhexadecahydro-1H-cyclopenta[1,2-a]phenanthrene-6,7-diol] | 0.262 µM | –
C[C@H](CCN(C)C(=O)c1ccccc1F)[C@H]1CC[C@H]2[C@@H]3CC[C@@]4(C)[C@@H](O)[C@@H](O)CC[C@]4(C)[C@H]3CC[C@]12C [Compound 15A, 2-fluoro-N-[(3R)-3-[(1R,3aS,3bS,5aR,6R,7S,9aR,9bS,11aR)-6,7-dihydroxy-5a,9a,11a-trimethylhexadecahydro-1H-cyclopenta[1,2-a]phenanthren-1-yl]butyl]-N-methylbenzamide] | 0.37 µM | –
COc1nc(F)ccc1[C@](C)(O)CCC[C@@H](C)[C@H]1CC[C@H]2[C@H]3[C@H](CC[C@]12C)[C@@]1(C)CC[C@H](O)[C@H](O)[C@@H]1CC3(F)F [Compound 310, (1R,3aS,3bS,5aR,6R,7S,9aR,9bS,11aR)-4,4-difluoro-1-[(2R,6R)-6-(6-fluoro-2-methoxypyridin-3-yl)-6-hydroxyheptan-2-yl]-9a,11a-dimethylhexadecahydro-1H-cyclopenta[1,2-a]phenanthrene-6,7-diol] | 0.209 µM | –
C[C@H](CCCC(O)c1nnnn1C)[C@H]1CC[C@H]2[C@H]3[C@H](CC[C@]12C)[C@@]1(C)CC[C@H](O)[C@H](O)[C@@H]1CC3(F)F (stereo partly drawn) [Compound 384, (1R,3aS,3bS,5aR,6R,7 S,9aR,9bS,11aR)-4,4-Difluoro-1-[(2R)-6-hydroxy-6-(1-methyl-1,2,3,4-tetrazol-5-yl)hexan-2-yl]-9a,11a-dimethylhexadecahydro-1H-cyclopenta[1,2-a]phenanthrene-6,7-diol] | 0.185 µM | –
C[C@H](CCC[C@@H](O)c1cccc2c1cnn2C)[C@H]1CC[C@H]2C3=C(F)C[C@H]4[C@@H](O)[C@@H](O)CC[C@]4(C)[C@H]3CC[C@]12C [Compound 253, (1R,3aR,5aR,6R,7S,9aR,9bR,11aR)-4-fluoro-1-[(2R,6R)-6-hydroxy-6-(1-methylindazol-4-yl)hexan-2-yl]-9a,11a-dimethyl-2,3,3a,5,5a,6,7,8,9,9a,9b,10,11,11a-tetradecahydro-1H-cyclopenta[1,2-a]phenanthrene-6,7-diol] | 0.016 µM | –
C[C@H](CCC[C@@H](O)c1nnnn1C)[C@H]1CC[C@H]2[C@H]3[C@H](CC[C@]12C)[C@@]1(C)CC[C@H](O)C[C@@H]1CC3(F)F (single isomer, unassigned) [Compound 381] | 0.285 µM | –
C[C@H](CCCC(O)c1cccc2nnn(C)c12)[C@H]1CC[C@H]2[C@H]3[C@H](CC[C@]12C)[C@@]1(C)CC[C@H](O)[C@H](O)[C@@H]1CC3(F)F (stereo partly drawn) [Compound 271, (1R,3aS,3bS,5aR,6R,7 S,9aR,9bS,11aR)-4,4-Difluoro-1-[(2R)-6-hydroxy-6-(3-methylbenzo[d][1,2,3]triazol-4-yl)hexan-2-yl]-9a,11a-dimethylhexadecahyd ro-1H-cyclopenta[1,2-a]phenanthrene-6,7-diol] | 0.207 µM | –
COc1nc(F)cc(F)c1[C@H](O)CCC[C@@H](C)[C@H]1CC[C@H]2[C@H]3[C@H](CC[C@]12C)[C@@]1(C)CC[C@H](O)[C@H](O)[C@@H]1CC3(F)F (single isomer, unassigned) [Compound 256] | 0.099 µM | –
C[C@H](CCCC(O)c1ccc2c(c1)OC(F)(F)O2)[C@H]1CC[C@H]2[C@H]3[C@H](CC[C@]12C)[C@@]1(C)CC[C@H](O)[C@H](O)[C@@H]1CC3(F)F (single isomer, unassigned) [Compound 258, (1R,3aS,3bS,5aR,6R,7S,9aR,9bS,11aR)-1-[(2R,6S)-6-(2,2-difluorobenzo[d][1,3]dioxol-5-yl)-6-hydroxyhexan-2-yl]-4,4-difluoro-9a,11a-dimethylhexadecahydro-1H-cyclopenta[1,2-a]phenanthrene-6,7-diol or (1R,3aS,3bS,5aR,6R,7S,9aR,9bS,11aR)-1-[(2R,6R)-6-(2,2-difluorobenzo[d][1,3]dioxol-5-yl)-6-hydroxyhexan-2-yl]-4,4-difluoro-9a,11a-dimethylhexadecahydro-1H-cyclopenta[1,2-a]phenanthrene-6,7-diol] | 0.454 µM | –
C[C@H](CCC[C@@H](O)c1ccc(F)nc1OCC1COC1)[C@H]1CC[C@H]2[C@H]3[C@H](CC[C@]12C)[C@@]1(C)CC[C@H](O)[C@H](O)[C@@H]1CC3(F)F [Compound 386, (1R,3aS,3bS,5aR,6R,7S,9aR,9bS,11aR)-4,4-difluoro-1-[(2R,6R)-6-{6-fluoro-2-[(oxetan-3-ylmethyl)oxy]pyridin-3-yl}-6-hydroxyhexan-2-yl]-9a,11a-dimethylhexadecahydro-1H-cyclopenta[1,2-a]phenanthrene-6,7-diol] | 0.026 µM | –
C[C@H](CCCC(O)c1nc2c(s1)CCOC2)[C@H]1CC[C@H]2[C@H]3[C@H](CC[C@]12C)[C@@]1(C)CC[C@H](O)[C@H](O)[C@@H]1CC3(F)F (stereo partly drawn) [Compound 257, (1R,3aS,3bS,5aR,6R,7 S,9aR,9bS,11aR)-1-[(2R)-6-(6,7-Dihydro-4H-pyrano[3,4-d][1,3]thiazol-2-yl)-6-hydroxyhexan-2-yl]-4,4-difluoro-9a,11a-dimethylhexadecahyd ro-1H-cyclopenta[1,2-a]phenanthrene-6,7-diol] | 0.154 µM | –
C[C@H](CCC[C@@H](O)c1cc2ccccc2o1)[C@H]1CC[C@H]2[C@H]3[C@H](CC[C@]12C)[C@@]1(C)CC[C@H](O)[C@H](O)[C@@H]1CC3(F)F [Compound 322, (1R,3aS,3bS,5aR,6R,7S,9aR,9bS,11aR)-1-[(2R,6R)-6-(1-benzofuran-2-yl)-6-hydroxyhexan-2-yl]-4,4-difluoro-9a,11a-dimethylhexadecahydro-1H-cyclopenta[1,2-a]phenanthrene-6,7-diol] | – | 0.339 µM
COc1cccc(C(O)CCC[C@@H](C)[C@H]2CC[C@H]3C4=C(F)C[C@H]5[C@@H](O)[C@@H](O)CC[C@]5(C)[C@H]4CC[C@]23C)c1 (stereo partly drawn) [Compound 40, (1R,3aR,5aR,6R,7S,9aR,9bR,11aR)-4-fluoro-1-[(2R)-6-hydroxy-6-(3-methoxyphenyl)hexan-2-yl]-9a,11a-dimethyl-2,3,3a,5,5a,6,7,8,9,9a,9b,10,11,11a-tetradecahydro-1H-cyclopenta[1,2-a]phenanthrene-6,7-diol] | 0.25 µM | –
COc1nccnc1[C@H](O)CCC[C@@H](C)[C@H]1CC[C@H]2[C@H]3[C@H](CC[C@]12C)[C@@]1(C)CC[C@H](O)[C@H](O)[C@@H]1CC3(F)F [Compound 154, (1R,3aS,3bS,5aR,6R,7S,9aR,9bS,11aR)-4,4-difluoro-1-[(2R,6R)-6-hydroxy-6-(3-methoxypyrazin-2-yl)hexan-2-yl]-9a,11a-dimethylhexadecahydro-1H-cyclopenta[1,2-a]phenanthrene-6,7-diol] | 0.242 µM | –
COc1ccnc(OC)c1C(O)CCC[C@@H](C)[C@H]1CC[C@H]2[C@H]3[C@H](CC[C@]12C)[C@@]1(C)CC[C@H](O)[C@H](O)[C@@H]1CC3(F)F (single isomer, unassigned) [Compound 172, (1R,3aS,3bS,5aR,6R,7S,9aR,9bS,11aR)-1-[(2R,6R)-6-(2,4-dimethoxypyridin-3-yl)-6-hydroxyhexan-2-yl]-4,4-difluoro-9a,11a-dimethylhexadecahydro-1H-cyclopenta[1,2-a]phenanthrene-6,7-diol or (1R,3aS,3bS,5aR,6R,7S,9aR,9bS,11aR)-1-[(2R,6S)-6-(2,4-dimethoxypyridin-3-yl)-6-hydroxyhexan-2-yl]-4,4-difluoro-9a,11a-dimethylhexadecahydro-1H-cyclopenta[1,2-a]phenanthrene-6,7-diol] | – | 0.113 µM
